Data from publication PMC10148624, “Discovery of diarylpyrimidine derivatives bearing piperazine sulfonyl as potent HIV-1 nonnucleoside reverse transcriptase inhibitors” (Communications Chemistry, 2023).
≈ marks a conversion by molar mass, not a printed value. Where “and” joins values, the source holds several entries; their conditions need not be identical. Equal entries are not always repeated. Where two headings read alike, the source gives them in different places.

Columns and labels:
[1] = test system: HIV-1 K103N/Y181C double mutant (RES056); assay: microbe, parasite or virus in culture; format: cell-based; conditions: for EC50: Human immunodeficiency virus 1, MT4, read-out: EC50 RES056; for SI RES056: selectivity index, ratio of CC50/EC50
Procedure: (§1) The biological results were determined as EC50 (anti-HIV potency), CC50 (cytotoxicity) and SI (selectivity index, the ratio of CC50/EC50). […]
(§2) compounds were made directly in flat-bottomed 96-well microtiter trays by adding 100 μL medium to the 25 μL stock solution and transferring 25 μL of this solution to another well that contained 100 μL medium using a Biomek 3000 robot (Beckman Instruments, Fullerton, CA). Untreated control HIV- and mock-infected cell samples were included for each sample. HIV-1 WT strain (IIIB), HIV-1 drug-resistant strains including […]
(§3) (50% cell culture infectious dose) or culture medium was added to either the infected or mock-infected wells of the microtiter tray. Mock-infected cells were used to evaluate the effect of test compounds on uninfected cells in order to assess its cytotoxicity.
(§4) Exponentially growing MT-4 cells were centrifuged for 5 min at 1000 rpm and the supernatant was discarded.
(§5) 50 μL volumes were transferred to the microtiter tray wells. Five days after infection, the viability of mock- and HIV-infected cells was examined spectrophotometrically by […]
(§6) concentration of the test compound that reduced the viability of the mock-infected MT- […]

HIV-1 WT (IIIB) = assay: microbe, parasite or virus in culture; format: cell-based; conditions: for EC50: Human immunodeficiency virus 1, IIIB; for SI IIIB: selectivity index, ratio of CC50/EC50
Procedure: as §1, §2, §3, §4, §5, §6

in vitro = conditions: human
Procedure: as §1, §2, §3, §4, §5, §6

HIV-1 L100I = assay: microbe, parasite or virus in culture; format: cell-based; conditions: Human immunodeficiency virus 1, MT4, read-out: EC50 L100I
Procedure: as §2, §3, §4, §5, §6

HIV-1 E138K = assay: microbe, parasite or virus in culture; format: cell-based; conditions: Human immunodeficiency virus 1, MT4, read-out: EC50 E138K
Procedure: as §2, §3, §4, §5, §6

HIV-1 F227L/V106A = assay: Anti-HIV-1 activity against F227L/V106A mutant strain, MTT method in MT-4 cells; format: cell-based; conditions: for EC50: Human immunodeficiency virus 1, MT4, read-out: EC50 F227L/V106A
From the text: (§7) According to the anti-HIV-1(WT) results, the promising compounds 18a(1–5), 18b(1–5) and 18c1 were chosen to further evaluate their inhibitory potency against the prevalent HIV-1 mutations, including L100I, K103N, Y181C, Y188L, E138K, and F227L/V106A. […]. page 20:
(§8) or mock-infected wells of the microtiter tray. Mock-infected cells were used to evaluate
(§9) supernatant was discarded.
(§10) Five days after infection,
(§11) 4 cells by 50%. […]

HIV-1 Y188L = assay: Anti-HIV-1 activity against Y188L mutant strain, MTT method in MT-4 cells; format: cell-based; conditions: Human immunodeficiency virus 1, MT4, read-out: EC50 Y188L
From the text: as §7, §8, §9, §10, §11

HIV-1 K103N = assay: Anti-HIV-1 activity against K103N mutant strain, MTT method in MT-4 cells; format: cell-based; conditions: Human immunodeficiency virus 1, MT4, read-out: EC50 K103N
From the text: as §7, §8, §9, §10, §11

CYP2C19 = CYP2C19 (Homo sapiens, UniProt P33261); assay: in vitro; conditions: human, microsomes
CYP2C19, sequence (P33261 whole entry): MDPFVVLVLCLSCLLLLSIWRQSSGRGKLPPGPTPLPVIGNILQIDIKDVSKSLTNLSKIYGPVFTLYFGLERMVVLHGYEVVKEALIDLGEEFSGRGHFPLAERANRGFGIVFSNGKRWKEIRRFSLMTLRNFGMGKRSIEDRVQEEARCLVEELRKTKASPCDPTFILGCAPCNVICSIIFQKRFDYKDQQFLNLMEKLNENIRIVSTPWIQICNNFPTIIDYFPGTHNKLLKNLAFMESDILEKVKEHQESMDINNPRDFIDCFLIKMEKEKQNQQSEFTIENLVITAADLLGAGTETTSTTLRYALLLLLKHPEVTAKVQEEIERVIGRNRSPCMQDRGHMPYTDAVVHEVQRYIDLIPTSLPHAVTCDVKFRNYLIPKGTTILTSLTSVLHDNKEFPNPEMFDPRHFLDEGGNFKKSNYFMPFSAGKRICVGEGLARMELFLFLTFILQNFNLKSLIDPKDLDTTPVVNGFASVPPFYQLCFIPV
From the text: (§12) Section 8. CYP enzyme inhibition assay […]
(§13) Agilent 1200 LC/MSD (Agilent, USA).

CYP2C9 = CYP2C9 (Homo sapiens, UniProt P11712); assay: in vitro; conditions: human, microsomes
CYP2C9, sequence (P11712 whole entry): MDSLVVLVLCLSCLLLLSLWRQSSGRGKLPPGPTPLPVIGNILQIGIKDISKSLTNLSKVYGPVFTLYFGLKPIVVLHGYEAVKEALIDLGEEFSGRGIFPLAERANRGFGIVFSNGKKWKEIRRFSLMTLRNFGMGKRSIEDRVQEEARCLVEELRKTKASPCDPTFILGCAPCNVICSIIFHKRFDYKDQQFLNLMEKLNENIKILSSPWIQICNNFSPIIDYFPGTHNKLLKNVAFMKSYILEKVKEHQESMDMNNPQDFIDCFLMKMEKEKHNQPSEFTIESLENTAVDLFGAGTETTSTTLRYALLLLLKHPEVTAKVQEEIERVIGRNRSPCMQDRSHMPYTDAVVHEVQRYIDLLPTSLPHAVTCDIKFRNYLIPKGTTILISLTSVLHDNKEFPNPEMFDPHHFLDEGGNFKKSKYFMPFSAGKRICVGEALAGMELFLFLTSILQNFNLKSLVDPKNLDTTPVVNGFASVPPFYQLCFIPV
From the text: as §12, §13

[2] = In vivo pharmacokinetics in Sprague-Dawley rats; conditions: SD rat, 2.0 mg/kg i.v., mean ± SD, n = 3
Procedure: (§15) SpragueDawley (SD) rats (180−200 g) were randomly divided into two groups to
(§16) receive oral administration (10 mg/kg) or intravenous (2 mg/kg). A solution of
(§17) compound 18b1 was prepared by dissolving in a mixture of polyethylene glycol (PEG)
(§18) 400/normal saline (70/30, V/V) before the experiment. Blood samples (200 μL of blood
(§19) each times) of the intravenous group were collected from the sinus jugular into
(§20) h after dosing, and blood samples (200 μL of blood each times) of the oral
(§21) used to determine the concentration of 18b1 in plasma. Briefly, 50 μL of plasma was
(§22) and a 20 μL aliquot was injected for LCMS/MS analysis. Standard curves for 18b1 in
(§23) blood were generated by the addition of S10 various concentrations of 18b1 together

HIV-1 Y181C = assay: Anti-HIV-1 activity against Y181C mutant strain, MTT method in MT-4 cells; format: cell-based
From the text: as §8, §9, §10, §11

CYP2D6 = CYP2D6 (Homo sapiens, UniProt P10635); assay: in vitro; conditions: human, microsomes, IC50 CYP2D6
CYP2D6, sequence (P10635 whole entry): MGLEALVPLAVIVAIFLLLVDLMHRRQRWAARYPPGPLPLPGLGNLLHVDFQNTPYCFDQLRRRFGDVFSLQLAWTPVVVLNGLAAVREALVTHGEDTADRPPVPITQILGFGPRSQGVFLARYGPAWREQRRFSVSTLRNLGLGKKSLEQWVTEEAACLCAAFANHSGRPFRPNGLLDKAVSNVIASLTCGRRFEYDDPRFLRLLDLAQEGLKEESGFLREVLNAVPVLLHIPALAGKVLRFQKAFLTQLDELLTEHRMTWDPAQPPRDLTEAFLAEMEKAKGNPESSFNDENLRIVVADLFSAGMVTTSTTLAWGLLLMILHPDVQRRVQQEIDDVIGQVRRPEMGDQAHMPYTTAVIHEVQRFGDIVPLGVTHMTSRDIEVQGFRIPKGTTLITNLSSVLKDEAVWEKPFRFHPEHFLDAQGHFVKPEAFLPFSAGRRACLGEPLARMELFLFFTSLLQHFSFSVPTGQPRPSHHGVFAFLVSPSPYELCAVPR
Procedure: Fig. S3 Decomposition of the binding free energy (per-residue) into contributions from electrostatic energy, vdw energy, polar solvation energy, and non-polar solvation energy. a K103N-18b1. b […]
(§14) Section 7. Water solubility measurements
Water solubility was measured in phosphate buffer at pH 7.0 by using an HPLC-UV method.17 Compounds were initially dissolved in DMSO at 10 mg/mL 10 μL of this stock solution was spiked into purified water (1 mL) with the final DMSO concentration being 1%. The mixture was ultrasonic for 2 h at room temperature and restored at room temperature overnight. The saturated solution was filtrated through a filter membrane (pore size = 0.22 μm) and transferred to other Eppendorf tubes for analysis by HPLC-UV. The sample was performed in triplicate. For quantification, a model LC-20AT HPLC-UV (SHIMADZU) system was used with an Inertsil ® ODS-SP-C18 column (150 mm × 4.6 mm, 5 μm) and MeOH/water as eluant. The flow rate was 1.0 mL/min, and injection volume was 20 μL. Aqueous concentration was determined by comparison of the peak area of the saturated solution with a standard curve plotted peak area versus known concentrations, which were prepared by solutions in MeOH at 200, […]
as §12
Section 9. Pharmacokinetics studies […]
approval from the Animal Ethical and Welfare Committee (AEWC). Ten male […]
Blood samples (200 μL of blood
Briefly, 50 μL of plasma was […]
tube, which was centrifuged at 3000g for 10 min. The supernatant layer was collected […]
Standard curves for 18b1 in […]
with an internal standard to blank plasma. Then all samples were quantified with an […]

physchem = format: physicochemical; conditions: pH 7, aqueous buffer, kinetic from dmso stock
Procedure: as §14
temperature overnight. The saturated solution was filtrated through a filter membrane
UV. The sample was performed in triplicate. For quantification, a model LC-20AT
The flow rate was 1.0 mL/min,
and injection volume was 20 μL. Aqueous concentration was determined by
Section 8. CYP enzyme inhibition assay

WT HIV-1 RT = biological target: T1, WT HIV-1 RT (Human immunodeficiency virus type 1 group M subtype B, UniProt P04585); assay: biochemical; conditions: read-out: IC50 against WT HIV-1 RT; inhibition of biotin deoxyuridine triphosphate incorporation into HIV-1 IIIB RT by 50%, mean ± SD, n = 2
T1 construct: purchased Roche
Procedure: Section 4. HIV-1 RT inhibition assays
A reverse transcriptase (RT) assay kit produced by Roche was selected for the RT inhibition assay.3 All the reagents for performing the RT reaction came with the kit and the ELSIA procedures for RT inhibition assay was carried out following the description in the kit protocol. Briefly, the reaction mixture containing template/primer complex, viral nucleotides (dNTPs) and RT in the incubation buffer with or without inhibitors was incubated for 1 h at 37 °C . After that, the reaction mixture was transferred to a streptavidine coated microtiter plate and incubated for another 1 h at 37 °C to make sure retranscriptional cDNA chain that consisted biotin labeled dNTPs bound to streptavidine. Then unbound dNTPs were removed using washing buffer and anti-DIG-POD working solution was added. After incubation for 1 h at 37 °C , the DIG-labeled dNTPs incorporated in cDNA were bound to the anti-DIG-POD antibody. The unbound

in vivo = conditions: male, Sprague-Dawley, rat, plasma
Procedure: as §15, §16, §17, §18, §19, §20, §21, §22, §23

For Cc1cn([C@H]2C[C@H](N=[N+]=[N-])[C@@H](CO)O2)c(=O)[nH]c1=O [AZT, zidovudine], the EC50 [1] was 37 ± 11 nM, the “SI RES056” value [1] was >200 and the EC50 (HIV-1 WT (IIIB); MT4, read-out: EC50 IIIB) was 32 ± 9.6 nM. The “SI IIIB” value (HIV-1 WT (IIIB)) was >234 and the CC50 at 5 days (in vitro) was > 7.48 µM.
With Cc1cc(/C=C/C#N)cc(C)c1Oc1ccnc(Nc2ccc(CN3CCN(S(C)(=O)=O)CC3)cc2)n1 [BH-11c] the EC50 (HIV-1 L100I) was 14 ± 5.3 nM, the EC50 (HIV-1 E138K) was 9.4 ± 5 nM and the EC50 (HIV-1 F227L/V106A) was 210 ± 95 nM. The EC50 (HIV-1 Y188L) was 1320 ± 220 nM and the EC50 (HIV-1 K103N) was 3.7 ± 1.6 nM.
With CCS(=O)(=O)N1CCN(c2ccc(Nc3nccc(Oc4c(C)cc(C#N)cc4C)n3)cc2C#N)CC1 [Compound 17b2] the EC50 [1] was > 241000 nM, the EC50 (HIV-1 WT (IIIB); MT4, MT-4 cells, MTT method, mean ± SD, n ≥ 4, read-out: EC50 IIIB) was 6.6 ± 1.7 nM and the “SI IIIB” value (HIV-1 WT (IIIB)) was >36,585. For the same compound, the CC50 at 5 days (in vitro) was > 241 µM.
With Cc1cc(/C=C/C#N)cc(C)c1Oc1ccnc(Nc2ccc(N3CCN(S(C)(=O)=O)CC3)c(C#N)c2)n1 [Compound 18b1] the EC50 [1] was 93 ± 19 nM, the “SI RES056” value [1] was 110 and the EC50 (HIV-1 WT (IIIB); MT4, read-out: EC50 IIIB) was 1.4 ± 0.19 nM. For the same compound, the “SI IIIB” value (HIV-1 WT (IIIB)) was 7171, the IC50 at 10 min (CYP2C19) was 8 µM and the IC50 at 10 min (CYP2C9) was 5.3 µM. The CC50 at 5 days (in vitro) was 10.2 ± 1.82 µM, the EC50 (HIV-1 L100I) was 3.7 ± 0.62 nM and the EC50 (HIV-1 E138K) was 6.4 ± 0.54 nM. The V [2] was 8.81 L/kg and 8.81 ± 0.72 L/kg, the “fold more potent than lead compound BH-11c” value (HIV-1 F227L/V106A; F227L/V106A strain, ratio of EC50) was ~ 20 fold and the EC50 (HIV-1 F227L/V106A) was 9.9 ± 1.6 nM. For the same compound, the EC50 (HIV-1 Y181C; Human immunodeficiency virus 1, MT4, read-out: EC50 Y181C, MT-4 cells, MTT method, mean ± SD, n ≥ 4) was 6.4 ± 0.67 nM, the “fold potency enhancement over ETR” value (HIV-1 Y181C; Y181C strain, ratio of EC50) was 2.8 fold and the IC50 at 10 min (CYP2D6) was > 10 µM. It also gave a solubility (physchem) of 13.5 ± 0.49 µg/mL (≈ 25.4 µM), an IC50 (WT HIV-1 RT) of 93 ± 17 nM and an EC50 (HIV-1 Y188L) of 740 ± 210 nM. The EC50 (HIV-1 K103N) was 1.7 ± 0.32 nM, the AUC(0-inf) (in vivo; iv, 2 mg/kg) was 792 ± 74.9 ng·h/mL and the AUC(0-t) (in vivo; iv, 2 mg/kg) was 785 ± 73.9 ng·h/mL. The Cmax (in vivo; iv, 2 mg/kg) was 1230 ± 96.1 ng/mL, the Tmax (in vivo; iv, 2 mg/kg) was 0.08 h and the clearance (in vivo; iv, 2 mg/kg) was 42.3 mL/min/kg. It also gave a half-life (in vivo; iv, 2 mg/kg) of 145 ± 20.4 min, a bioavailability (in vivo; oral, 10 mg/kg) of 1.34% and an AUC(0-inf) (in vivo; po, 10 mg/kg) of 53.2 ± 8.32 ng·h/mL. For the same compound, the AUC(0-t) (in vivo; po, 10 mg/kg) was 45.1 ± 12.9 ng·h/mL, the Cmax (in vivo; po, 10 mg/kg) was 16.1 ± 6.59 ng/mL and the Tmax (in vivo; po, 10 mg/kg) was 3.5 ± 2.78 h. It also gave a half-life (in vivo; po, 10 mg/kg) of 183 ± 86.4 min.
